We go through 19 compounds from publication PMC12266337 (Biochemistry, 2025).

Where a SMILES comes first, the peptide text is derived from it. Where no end group is shown, it is not given here. [ ]: non-standard residue; d: D form.

The first experiment deals with T1, ComD receptor (Streptococcus constellatus, UniProt O33616).
Experiment: not given
Type of experiment: cell-based.
Conditions: not given
ASRIRMGFDFSKLFGK [CSP D1A] gave an IC50 of 120 nM.

The target of a further experiment is T1, ComD receptor. Kind of experiment: Luciferase reporter activation. In kind it is cell-based.
Conditions: not given
On the technique in general: Reporter assays use an easily measured gene product as a stand-in for the process of interest.
On to `CC[C@H](C)[C@H](NC(=O)[C@H](CCCNC(=N)N)NC(=O)[C@H](CO)NC(=O)[C@H](N)CC(=O)O)C(=O)N[C@@H](CCCNC(=N)N)C(=O)N[C@@H](CCSC)C(=O)NCC(=O)N[C@@H](Cc1ccccc1)C(=O)N[C@@H](CC(=O)O)C(=O)N[C@@H](Cc1ccccc1)C(=O)N[C@@H](CO)C(=O)N[C@@H](CCCCN)C(=O)N[C@@H](CC(C)C)C(=O)N[C@@H](Cc1ccccc1)C(=O)NCC(=O)N[C@@H](CCCCN)C(=O)O` [CSP-d1] (H-[dD]SRIRMGFDFSKLFGK-OH), for which the concentration for a half-maximal effect (EC50) was 9.7 nM. Same read-out and setting: as for `CC[C@H](C)[C@H](NC(=O)[C@H](CCCNC(=N)N)NC(=O)[C@H](CO)NC(=O)[C@@H](N)CC(=O)O)C(=O)N[C@@H](CCCNC(=N)N)C(=O)N[C@@H](CCSC)C(=O)NCC(=O)N[C@@H](Cc1ccccc1)C(=O)N[C@@H](CC(=O)O)C(=O)N[C@@H](Cc1ccccc1)C(=O)N[C@@H](CO)C(=O)N[C@@H](CCCCN)C(=O)N[C@@H](CC(C)C)C(=O)N[C@H](Cc1ccccc1)C(=O)NCC(=O)N[C@@H](CCCCN)C(=O)O` [CSP-f14] (H-DSRIRMGFDFSKL[dF]GK-OH), the figure is 2 nM; as for `CC[C@@H](C)[C@@H](NC(=O)[C@H](CCCNC(=N)N)NC(=O)[C@H](CO)NC(=O)[C@@H](N)CC(=O)O)C(=O)N[C@@H](CCCNC(=N)N)C(=O)N[C@@H](CCSC)C(=O)NCC(=O)N[C@@H](Cc1ccccc1)C(=O)N[C@@H](CC(=O)O)C(=O)N[C@@H](Cc1ccccc1)C(=O)N[C@@H](CO)C(=O)N[C@@H](CCCCN)C(=O)N[C@@H](CC(C)C)C(=O)N[C@@H](Cc1ccccc1)C(=O)NCC(=O)N[C@@H](CCCCN)C(=O)O` [CSP-i4] (H-DSR[dI]RMGFDFSKLFGK-OH), 25 nM.

On to `CC[C@H](C)[C@H](NC(=O)[C@H](CCCNC(=N)N)NC(=O)[C@H](CO)NC(=O)[C@@H](N)CC(=O)O)C(=O)N[C@@H](CCCNC(=N)N)C(=O)N[C@@H](CCSC)C(=O)NCC(=O)N[C@@H](Cc1ccccc1)C(=O)N[C@@H](CC(=O)O)C(=O)N[C@@H](Cc1ccccc1)C(=O)N[C@@H](CO)C(=O)N[C@H](CCCCN)C(=O)N[C@@H](CC(C)C)C(=O)N[C@@H](Cc1ccccc1)C(=O)NCC(=O)N[C@@H](CCCCN)C(=O)O` [CSP-k12] (H-DSRIRMGFDFS[dK]LFGK-OH), for which the concentration for a half-maximal effect (EC50) came out at 3.7 nM. Same read-out and setting: the same measure for `CC[C@H](C)[C@H](NC(=O)[C@H](CCCNC(=N)N)NC(=O)[C@H](CO)NC(=O)[C@@H](N)CC(=O)O)C(=O)N[C@@H](CCCNC(=N)N)C(=O)N[C@@H](CCSC)C(=O)NCC(=O)N[C@@H](Cc1ccccc1)C(=O)N[C@@H](CC(=O)O)C(=O)N[C@@H](Cc1ccccc1)C(=O)N[C@@H](CO)C(=O)N[C@@H](CCCCN)C(=O)N[C@@H](CC(C)C)C(=O)N[C@@H](Cc1ccccc1)C(=O)NCC(=O)N[C@H](CCCCN)C(=O)O` [CSP-k16] (H-DSRIRMGFDFSKLFG[dK]-OH): 1.7 nM; for `CC[C@H](C)[C@H](NC(=O)[C@H](CCCNC(=N)N)NC(=O)[C@H](CO)NC(=O)[C@@H](N)CC(=O)O)C(=O)N[C@@H](CCCNC(=N)N)C(=O)N[C@@H](CCSC)C(=O)NCC(=O)N[C@@H](Cc1ccccc1)C(=O)N[C@@H](CC(=O)O)C(=O)N[C@@H](Cc1ccccc1)C(=O)N[C@@H](CO)C(=O)N[C@@H](CCCCN)C(=O)N[C@H](CC(C)C)C(=O)N[C@@H](Cc1ccccc1)C(=O)NCC(=O)N[C@@H](CCCCN)C(=O)O` [CSP-l13] (H-DSRIRMGFDFSK[dL]FGK-OH): 25 nM; for `CC[C@H](C)[C@H](NC(=O)[C@H](CCCNC(=N)N)NC(=O)[C@H](CO)NC(=O)[C@@H](N)CC(=O)O)C(=O)N[C@@H](CCCNC(=N)N)C(=O)N[C@H](CCSC)C(=O)NCC(=O)N[C@@H](Cc1ccccc1)C(=O)N[C@@H](CC(=O)O)C(=O)N[C@@H](Cc1ccccc1)C(=O)N[C@@H](CO)C(=O)N[C@@H](CCCCN)C(=O)N[C@@H](CC(C)C)C(=O)N[C@@H](Cc1ccccc1)C(=O)NCC(=O)N[C@@H](CCCCN)C(=O)O` [CSP-m6] (H-DSRIR[dM]GFDFSKLFGK-OH): 35 nM. As to `CC[C@H](C)[C@H](NC(=O)[C@@H](CCCNC(=N)N)NC(=O)[C@H](CO)NC(=O)[C@@H](N)CC(=O)O)C(=O)N[C@@H](CCCNC(=N)N)C(=O)N[C@@H](CCSC)C(=O)NCC(=O)N[C@@H](Cc1ccccc1)C(=O)N[C@@H](CC(=O)O)C(=O)N[C@@H](Cc1ccccc1)C(=O)N[C@@H](CO)C(=O)N[C@@H](CCCCN)C(=O)N[C@@H](CC(C)C)C(=O)N[C@@H](Cc1ccccc1)C(=O)NCC(=O)N[C@@H](CCCCN)C(=O)O` [CSP-r3] (H-DS[dR]IRMGFDFSKLFGK-OH), the EC50 came out at 13 nM.

Consider `CC[C@H](C)[C@H](NC(=O)[C@H](CCCNC(=N)N)NC(=O)[C@H](CO)NC(=O)[C@@H](N)CC(=O)O)C(=O)N[C@H](CCCNC(=N)N)C(=O)N[C@@H](CCSC)C(=O)NCC(=O)N[C@@H](Cc1ccccc1)C(=O)N[C@@H](CC(=O)O)C(=O)N[C@@H](Cc1ccccc1)C(=O)N[C@@H](CO)C(=O)N[C@@H](CCCCN)C(=O)N[C@@H](CC(C)C)C(=O)N[C@@H](Cc1ccccc1)C(=O)NCC(=O)N[C@@H](CCCCN)C(=O)O` [CSP-r5] (H-DSRI[dR]MGFDFSKLFGK-OH), for which the 50% effective concentration (EC50) worked out at 47 nM. Compared with the last compound, the EC50 is about 3.6-fold higher. Still for that read-out and setting: as for `CC[C@H](C)[C@H](NC(=O)[C@H](CCCNC(=N)N)NC(=O)[C@@H](CO)NC(=O)[C@@H](N)CC(=O)O)C(=O)N[C@@H](CCCNC(=N)N)C(=O)N[C@@H](CCSC)C(=O)NCC(=O)N[C@@H](Cc1ccccc1)C(=O)N[C@@H](CC(=O)O)C(=O)N[C@@H](Cc1ccccc1)C(=O)N[C@@H](CO)C(=O)N[C@@H](CCCCN)C(=O)N[C@@H](CC(C)C)C(=O)N[C@@H](Cc1ccccc1)C(=O)NCC(=O)N[C@@H](CCCCN)C(=O)O` [CSP-s2] (H-D[dS]RIRMGFDFSKLFGK-OH), the figure is 7.9 nM; as for DARIRMGFDFSKLFGK [CSP S2A], 5.6 nM. The compound DSRARMGFDFSKLFGK [CSP I4A] came in with an EC50 of 0.089 nM. This EC50 lies about 63-fold lower than the previous one. DSRIAMGFDFSKLFGK [CSP R5A] returned a concentration giving a half-maximal response (EC50) of 4.8 nM. DSRIRAGFDFSKLFGK [CSP M6A] displayed an EC50 of 1.9 nM. This EC50 lies about 2.5-fold lower than the previous one. Still for that read-out and setting: as for DSRIRMGFDFSKLFGA [CSP K16A], the figure is 2.5 nM. Compound “DSRIRMGFDFSKLFGK [Native CSP, reference compound]” registered an EC50 of 5.2 nM.

Staying with this experiment, now noted: ΔcomC PcomX::luc reporter, agonism screening.
With DSAIRMGFDFSKLFGK [CSP R3A], the “QS activation (result in words)” value is “complete loss of function”. DSRIRMGFDFSKLAGK [CSP F14A]: the “QS activation (result in words)” value is on record as “abolished QS activation”.

In general, IC50 refers to the concentration at which inhibition is half-maximal. Higher therefore signals a need for much substance. As usually defined, the EC50 is the concentration needed to bring the measured effect to its halfway point.
